Measurements as given in US20110028345A1, “METHODS TO CHARACTERIZE CELL REPROGRAMMING AND USES THEREOF” (CORNING INCORPORATED, priority 2009, published 2011).
Ends that are not written are not given here.

What was measured:
[1] = system: differentiated ReNcell cells (endogenous dopamine receptors); test: Epic RWG biosensor DMR assay on the neuronal cell system differentiated from ReNcell VM; type: cell-based, human; conditions: for DMR signal upon stimulation: differentiated ReNcell cells, PD128907 and A68930 16 micromolar, dopamine 128 micromolar (FIG. 7A-C); for receptor to which the DMR signal is attributed: same doses as FIG. 7A-C
Method: For cell assay on Epic, undifferentiated cells were typically seeded using ˜3×10^3 cells per well in 50 μl of the corresponding culture medium in the biosensor microplate freshly coated with laminin, and were cultured at 37° C. under air/5% CO2. […] The medium was replaced with fresh ReNcell NSC Maintenance Medium every 2-3 days for 10 days. The confluency for all cells at the time of assays was ˜95% to 100%.
(§1) For biosensor cellular assays, compound solutions were made by diluting the stored concentrated solutions with the HBSS (1× Hanks balanced salt solution, plus 20 mM Hepes, pH 7.1), and transferred into a 384 well polypropylene compound storage plate to prepare a compound source plate. […] Afterwards, a 2 to 10 min continuous recording was carried out to establish a baseline, and to ensure that the cells reached a steady state.

[2] = system: undifferentiated and differentiated ReN cells; test: DMR marker panel profiling, differentiated versus undifferentiated ReN cells; type: cell-based, human; conditions: markers at 10 μM (dopamine and glucagons like peptide 128 μM); FIG. 9-11
Method: The confluency for all cells at the time of assays was ˜95% to 100%.
as §1

ReNcell progenitor cells = conditions: 128 micromolar
Method: Afterwards, a 2 to 10 min continuous recording was carried out to establish a baseline, and to ensure that the cells reached a steady state. Cellular responses were then triggered by transferring 10 μl of the compound solutions into the cell assay plate using the on-board liquid handler.
Epic® wavelength interrogation system (Corning Inc., Corning, N.Y.) was used for whole cell sensing. This system consists of a temperature-control unit, an optical detection unit, and an on-board liquid handling unit with robotics. The detection unit is centered on integrated fiber optics, and enables kinetic measures of cellular responses with a time interval of ˜15 sec. The compound solutions were introduced by using the on-board liquid handling unit (i.e., pippetting).
For biosensor cellular assays, compound solutions were made by diluting the stored concentrated solutions with the HBSS (1× Hanks balanced salt solution, plus 20 mM Hepes, pH 7.1), and transferred into a 384 well polypropylene compound storage plate to prepare a compound source plate. Two compound source plates were made separately when a two-step assay was performed. […] Both the cell assay plate and the compound source plate(s) were then incubated in the hotel of the reader system. After incubation the baseline wavelengths of all biosensors in the cell assay microplate were recorded and normalized to zero. […]

A549 cell = test: Modulation of marker-induced biosensor (DMR) responses in A549 cell; type: cell-based
Source text: (§2) A “modulation profile” or like terms is the comparison between a secondary profile of the marker in the presence of a molecule and the primary profile of the marker in the absence of any molecule. The comparison can be by, for example, subtracting the primary profile from secondary profile or subtracting the secondary profile from the primary profile or normalizing the secondary profile against the primary profile.
(§3) A “molecule modulation index” or like terms is an index to display the ability of the molecule to modulate the biosensor output signals of the panels of markers acting on the panel of cells. The modulation index is generated by normalizing a specific biosensor output signal parameter of a response of a cell upon stimulation with a marker in the presence of a molecule against that in the absence of any molecule.
(§4) Alternatively, different scores can be given for a type of modulation but with different scales. For example, a positive modulation of 10%, 20%, 30%, 40%, 50%, 60%, 100%, 200%, etc, can be given a score of +1, +2, +3, +4, +5, +6, +10, +20, correspondingly. Conversely, for negative modulation, similar but in opposite score can be given. […] Thus, the score of HA1077 modulation index in coordination can be assigned as (0, 0.5, −0.6, 0, −2.3, 0.6, 0, −6.8, 0.4, −3.6, −0.5, −1.6). Once a molecular index is generated, the molecular index can be compared with a library of known modulators to determine the mode(s) of action of the molecule of interest. […] Beside its indicative power of a DMR index for pharmacology of a molecule, a molecule DMR index can also be used to distinguish the cellular background of different types of cells.

quiescent A431 cells = test: Modulation of marker-induced biosensor (DMR) responses in quiescent A431 cells; type: cell-based
Source text: as §2, §3, §4

For NC[C@@H]1O[C@H](c2ccccc2)Cc2c1ccc(O)c2O [A68930], the “DMR signal upon stimulation” value [1] was “small but reproducible DMR signal” and the “receptor to which the DMR signal is attributed” value (from here on “receptor”) ([1]; differentiated cells) was “triggered a DMR signal specifically to the endogenous D1 receptor”.
Nc1ncnc2c1ncn2[C@@H]1O[C@H](COP(=O)(O)OP(=O)(O)O)[C@@H](O)[C@H]1O [ADP] was tested, and the “specificity of the marker DMR signal for the differentiation state” value (“specificity … for the differentiation state” for short) [2] was “non-specific to both the undifferentiated and differentiated ReN cells”.
Nc1ncnc2c1ncn2[C@@H]1O[C@H](COP(=O)(O)OP(=O)(O)OP(=O)(O)O)[C@@H](O)[C@H]1O [ATP] was tested, and the “specificity … for the differentiation state” value [2] was “specific to the differentiated ReN cells”.
In the case of NCCCC(=O)O [GABA], the “specificity … for the differentiation state” value [2] is reported as “non-specific to both the undifferentiated and differentiated ReN cells”.
With CCCN1CCO[C@@H]2c3cc(O)ccc3OC[C@H]21 [PD128907] the “DMR signal upon stimulation” value [1] was “small but reproducible DMR signal” and the “receptor” value ([1]; differentiated cells) was “activated another endogenous dopamine receptor (possibly D2 receptor)”.
In the case of O=c1ccn([C@@H]2O[C@H](COP(=O)(O)OP(=O)(O)O)[C@@H](O)[C@H]2O)c(=O)[nH]1 [UDP], the “specificity … for the differentiation state” value [2] is reported as “specific to the differentiated ReN cells”.
O=c1ccn([C@@H]2O[C@H](COP(=O)(O)OP(=O)(O)OP(=O)(O)O)[C@@H](O)[C@H]2O)c(=O)[nH]1 [UTP] was tested, and the “specificity … for the differentiation state” value [2] was “specific to the undifferentiated cells”.
For Nc1ncnc2c1ncn2[C@@H]1O[C@H](CO)[C@@H](O)[C@H]1O [adenosine], the “specificity … for the differentiation state” value [2] was “specific to the differentiated ReN cells”.
In the case of NCCc1ccc(O)c(O)c1 [dopamine], the “DMR signal 10 days after differentiation and maturation” value ([1]; 128 micromolar, 10 days after differentiation (FIG. 8D)) is reported as “distinct DMR signal which contains additional contributions from endogenous D1 receptors”, the “dose dependence of the DMR signal” value ([1]; amplitudes 50 min after stimulation as a function of concentration (FIG. 7D)) is reported as “biphasic dose-dependent DMR signal” and the “DMR signal upon stimulation” value [1] is reported as “small but reproducible DMR signal”. For the same compound, the “DMR signal at high doses” value ([1]; differentiated cells, high doses) was “close to the simple sum of both A68390 and PD129807 DMR signals”, the “DMR signal at low doses” value ([1]; differentiated cells, low doses (<4000 nM)) was “DMR signal similar to that induced by A68390” and the “receptor” value ([1]; differentiated cells) was “can activate both D1 and D2 receptors”. The “DMR signal 3 hr after attachment” value (ReNcell progenitor cells; 3 hr after attachment on laminin coated biosensor surface (FIG. 8B)) was “small but reproduced DMR signal”, the “DMR signal after 4 days undifferentiated culture” value (ReNcell progenitor cells; 4 days in growth factor rich medium (FIG. 8C)) was “distinct DMR signal (FIG. 8C), which was confirmed to be due to the activation of the endogenous D2 receptor” and the “specificity … for the differentiation state” value [2] was “non-specific to both the undifferentiated and differentiated ReN cells”.
NCCCNCCCCNCCCN [spermine] was tested, and the “specificity … for the differentiation state” value [2] was “specific to the differentiated ReN cells”.
With NCCc1ccc(O)cc1 [tyramine] the “specificity … for the differentiation state” value [2] was “specific to the undifferentiated cells”.
For N#CC(C#N)=C(N)/C(C#N)=C/c1cc(O)c(O)c(O)c1 [tyrphostin 51], the “modulation of the biosensor response induced by PMA” value (A549 cell; marker PMA) was −6%, the “modulation of the biosensor response induced by SLIGKV-amide” value (A549 cell; marker SLIGKV-amide) was 0% and the “modulation of the biosensor response induced by forskolin” value (A549 cell; marker forskolin) was −23%. For the same compound, the “modulation of the histamine early response” value (A549 cell; marker histamine, early response) was “+6%”, the “modulation of the histamine late response” value (A549 cell; marker histamine, late response) was 0% and the “modulation of the biosensor response induced by pinacidil” value (A549 cell; marker pinacidil) was 0%. The “modulation of the biosensor response induced by poly (I:C)” value (A549 cell; marker poly (I:C)) was “+5%”, the “mode of action concluded from the biosensor index” value (quiescent A431 cells; EGFR inhibitor (EGF DMR in A431) and PDE4 inhibitor (epinephrine, histamine in A431; forskolin in A549)) was “displays polypharmacology” and the “modulation of the EGF N-DMR” value (quiescent A431 cells; quiescent A431 cells, marker EGF, N-DMR) was −5%. The “modulation of the EGF P-DMR” value (quiescent A431 cells; quiescent A431 cells, marker EGF, P-DMR) was −36%, the “modulation of the biosensor response induced by epinephrine” value (quiescent A431 cells; quiescent A431 cells, marker epinephrine) was −68% and the “modulation of the biosensor response induced by histamine” value (quiescent A431 cells; quiescent A431 cells, marker histamine) was −16%. For the same compound, the “modulation of the biosensor response induced by nicotinic acid” value (quiescent A431 cells; quiescent A431 cells, marker nicotinic acid) was “+4%”.
With Neuropeptide Y the “specificity … for the differentiation state” value [2] was “specific to the differentiated ReN cells”.
SFLLR-amide was tested, and the “specificity … for the differentiation state” value [2] was “specific to the differentiated ReN cells”.
In the case of “alpha-melanocyte-stimulating hormone (SYSMEHFRWGKPV; ends and bridges not checked; UniProt P01189 138-150, looked up) [MCH receptor agonist]”, the “specificity … for the differentiation state” value [2] is reported as “non-specific to both the undifferentiated and differentiated ReN cells”.
“angiotensin II (DRVYIHPF; Angiotensin-2; UniProt P01019 25-32, looked up) [ATII receptor angiotensin II]” was tested, and the “specificity … for the differentiation state” value [2] was “specific to the undifferentiated cells”.
For apelin, the “specificity … for the differentiation state” value [2] was “non-specific to both the undifferentiated and differentiated ReN cells”.
For “dynorphin A (YGGFLRRIRPKLKWDNQ; Dynorphin A(1-17); UniProt P01213 207-223, looked up) [opioid receptor agonist]”, the “specificity … for the differentiation state” value [2] was “specific to the differentiated ReN cells”.
In the case of “endothelin 1 (CSCSSLMDKECVYFCHLDIIW; ends and bridges not checked; cysteine pairing not given here; UniProt P05305 53-73, looked up) [endothelin receptor agonist]”, the “specificity … for the differentiation state” value [2] is reported as “specific to the differentiated ReN cells”.
For glucagons like peptide, the “specificity … for the differentiation state” value [2] was “specific to the undifferentiated cells”.
For lysophosphatidic acid, the “specificity … for the differentiation state” value [2] was “specific to the undifferentiated cells”.
“neuropeptide B-23 (WYKPAAGHSSYSVGRAAGLLSGLR; ends and bridges not checked; UniProt Q8NG41 25-48, looked up) [GPR7 and 8 agonist]” was tested, and the “specificity … for the differentiation state” value [2] was “specific to the differentiated ReN cells”.
“orexin A (QPLPDCCRQKTCSCRLYELLHGAGNHAAGILTL; ends and bridges not checked; cysteine pairing not given here; UniProt O43612 34-66, looked up) [orexin receptor agonist]” was tested, and the “specificity … for the differentiation state” value [2] was “specific to the differentiated ReN cells”.
For platelet growth factor, the “specificity … for the differentiation state” value [2] was “non-specific to both the undifferentiated and differentiated ReN cells”.
With “substance P (RPKPQQFFGLM; ends and bridges not checked; UniProt P20366 58-68, looked up) [NKA receptor agonist]” the “specificity … for the differentiation state” value [2] was “specific to the undifferentiated cells”.
In the case of “vasoactive intestinal peptide (HSDAVFTDNYTRLRKQMAVKKYLNSILN; ends and bridges not checked; UniProt P01282 125-152, looked up) [VIP receptor agonist]”, the “specificity … for the differentiation state” value [2] is reported as “specific to the differentiated ReN cells”.
